Data as given in patent US6048854A, “2,3-diaminopropionic acid derivative” (Sumitomo Pharmaceuticals Company, Limited, priority 1993, dated 2000).
Read-outs that look alike come from different tables or passages of the source.

Key:
[1] = tested on: human fibronectin; test: Binding assay of platelet to adhesive protein: fibronectin (receptor binding inhibition); details: Table 4; fixed activated human platelets, 37° C., 60 minutes
Procedure: (§1) The blood was taken out from the elbow vein of a normal volunteer, and mixed with 1/10 volume of 3.8% sodium citrate. The blood was centrifuged at 1,000 rpm (150 g) for 10 minutes, and the supernatant is collected as a platelet rich plasma (PRP). The precipitates are centrifuged at 11,000 rpm (6000 g) for two minutes, and the supernatant is collected as a platelet poor plasma (PPP). To PRP is added prostaglandin I2 (PGl2) at a final concentration of 50 ng/ml, and the mixture was centrifuged at 11000 rpm for two minutes to give human platelet. The platelet was activated by washing with 3.8 mM HEPES-buffer (pH 7.4, Tyrode-HEPES buffer) containing 0.14 M sodium chloride, 2.7 mM potassium chloride, 3.7 mM sodium dihydrogen phosphate, 0.98 mM magnesium chloride, 1 mg/ml glucose, 50 ng/ml PGl2 and 0.35% bovine serum albumin (BSA), adding thereto 5 μM epinephrine, and 30 μM ADP (adenosine diphosphate), followed by being allowed to stand at room temperature for five minutes. To the activated platelet was added 0.05% p-formaldehyde, and the mixture was allowed to stand at room temperature for 30 minutes to give the fixed platelet, which was suspended in Tyrode-HEPES buffer to give a platelet suspension of a concentration of 2×10^8 ml^-1.
(§2) Human fibrinogen from which fibronectin was previously removed by passing through gelatin-cepharose, human fibronectin or human vitronectin was diluted with 0.1 M aqueous sodium hydrogen carbonate solution to a concentration of 5 μg/ml, and the protein solution is put into a 96-well microplate at a volume of 200 μl/well. The microplate was allowed to stand at 4° C. overnight. The plate was washed with phosphate buffered saline (PBS), and subjected to blocking with 3% BSA at 37° C. for one hour. To the plate were added a platelet suspension (final concentration, 10^8 ml^-1) and a test compound of various concentrations (total volume, 200 μl/well), and the plate was incubated at 37° C. for 60 minutes. The plate was treated with 1000-fold diluted enzyme (HRP)-labelled anti-mouse IgG polyclonal antibody at 37° C. for 60 minutes, and thereto was added HRP chromogenic substrate (0.1 M phosphate buffer containing 0.4 mg/ml O-phenylenediamine,0.01% hydrogen peroxide, 0.1 M citric acid, pH 5), and reacted at room temperature for 15 minutes. The reaction was terminated by adding thereto 4.5 M sulfuric acid at a volume of 25 μl/well, and the absorbance at 490 nm was measured.

[2] = tested on: platelet aggregation; test: Platelet aggregation inhibitory activity (ADP-induced, human platelet rich plasma); assay type: cell-based
Method in brief: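 Citrated human platelet-rich plasma […] was stirred with test compound for 2 min at 37 °C. Aggregation was then induced with ADP at 3 μg/ml final and monitored by nephelometry. IC50 is the concentration giving 50% inhibition of aggregation.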

[3] = molecular target: T1, human fibrinogen (Homo sapiens, UniProt P05106+P08514); test: Binding assay of platelet to adhesive protein: fibrinogen (receptor binding inhibition); details: Table 4; fixed activated human platelets, 37° C., 60 minutes
T1 construct: centrifuged at 11000 rpm for two minutes to give human platelet; from tissue
Procedure: as §1, §2

[4] = tested on: platelet aggregation; test: Platelet aggregation inhibitory activity (ex vivo) after oral administration; assay type: in vivo; details: Cavia porcellus, guinea pig, oral 0.1 mg/kg, ADP 10 μg/ml
Procedure: A canula for collecting blood was inserted into the left common carotid artery of a guinea pig which was anesthetized with pentobarbital (30 mg/kg, i.p.). The blood (1 ml) was taken with a syringe containing 1/10 volume of 3.8% sodium citrate (Kettin-citrate, manufactured by Kokusai Shiyaku Ltd.), and the platelet aggregation ability thereof was measured (as a value before administration). Then, a test compound was orally administered to the guinea pig at a dose of 0.1 mg/kg in a volume of 5 ml/kg, and the blood was collected periodically likewise at 0.5, 1, 2, 4 and 6 hours after the administration of the test compound, and the platelet aggregation ability thereof was measured.
The determination of the platelet aggregation ability was carried out by turbidimetry using a Hematracer (Niko Bioscience) as follows. That is, the blood was centrifuged at 4500 rpm at room temperature for 10 seconds, and the supernatant was considered as platelet rich plasma (PRP), and the precipitate was centrifuged at 11000 rpm for two minutes and its supernatant was considered as platelet poor plasma (PPP), and the photo-transmittance of the PRP and the PPP was adjusted to 0%, and 100%, respectively. A cubet containing PRP (200 μl) was inserted to a measurement well, and […] at 1000 rpm at 37° C. for two minutes, and thereto was added a platelet aggregator; ADP (adenosine diphosphate, Sigma Ltd., 20 μl, final concentration; 10 μg/ml), and the maximum aggregation rate was measured. From the maximum aggregation rate before the administration of the test compound (MAR control) and the maximum aggregation rate after the administration of the test compound (MAR sample), the platelet aggregation inhibitory rate of each test compound was estimated according to the following equation.
Inhibitory rate (%)=(1-(MAR sample/MAR control))×100
The periodical change in the platelet aggregation inhibitory rate of each test compound at a dose of 0.1 mg/kg of oral administration is shown in Table 5.

[5] = tested on: human vitronectin; test: Binding assay of platelet to adhesive protein: vitronectin (receptor binding inhibition); details: Table 4; fixed activated human platelets, 37° C., 60 minutes; read-out: receptor binding inhibition (IC50), Bitronectin
Procedure: as §1, §2

[6] = Table 1, human PRP, ADP 3 μg/ml, 37° C.
[7] = 0.5 hr, read-out: platelet aggregation inhibitory rate (%), 0.5 hr
[8] = 1 hr, read-out: platelet aggregation inhibitory rate (%), 1 hr
[9] = 2 hrs, read-out: platelet aggregation inhibitory rate (%), 2 hrs
[10] = 4 hrs, read-out: platelet aggregation inhibitory rate (%), 4 hrs
[11] = 6 hrs, read-out: platelet aggregation inhibitory rate (%), 6 hrs
[12] = Homo sapiens, Table 2, same manner as Example 17

T1 sequence (P08514 32-887 limits assumed): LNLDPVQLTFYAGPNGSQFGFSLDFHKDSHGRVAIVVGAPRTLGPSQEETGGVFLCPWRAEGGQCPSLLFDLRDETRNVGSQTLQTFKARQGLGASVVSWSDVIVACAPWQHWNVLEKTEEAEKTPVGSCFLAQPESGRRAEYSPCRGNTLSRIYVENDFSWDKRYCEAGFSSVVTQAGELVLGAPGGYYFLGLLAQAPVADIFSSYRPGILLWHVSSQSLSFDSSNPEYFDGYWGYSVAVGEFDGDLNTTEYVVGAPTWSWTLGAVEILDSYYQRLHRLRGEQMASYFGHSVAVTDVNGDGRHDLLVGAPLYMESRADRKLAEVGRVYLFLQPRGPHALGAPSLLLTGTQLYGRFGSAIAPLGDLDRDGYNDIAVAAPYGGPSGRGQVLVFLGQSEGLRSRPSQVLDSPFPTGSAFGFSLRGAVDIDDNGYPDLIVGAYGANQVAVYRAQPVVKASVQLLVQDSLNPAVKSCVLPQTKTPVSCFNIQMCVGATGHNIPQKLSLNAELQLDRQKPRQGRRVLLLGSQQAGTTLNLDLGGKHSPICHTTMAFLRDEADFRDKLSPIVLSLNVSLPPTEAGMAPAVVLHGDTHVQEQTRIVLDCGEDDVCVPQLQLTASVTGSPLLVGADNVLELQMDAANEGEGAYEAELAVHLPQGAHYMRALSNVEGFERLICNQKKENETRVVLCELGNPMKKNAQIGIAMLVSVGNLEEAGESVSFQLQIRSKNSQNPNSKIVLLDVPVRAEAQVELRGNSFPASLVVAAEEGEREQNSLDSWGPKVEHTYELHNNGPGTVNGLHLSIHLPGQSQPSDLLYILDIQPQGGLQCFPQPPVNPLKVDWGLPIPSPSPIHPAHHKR
T1 sequence (P08514 891-1039 limits assumed): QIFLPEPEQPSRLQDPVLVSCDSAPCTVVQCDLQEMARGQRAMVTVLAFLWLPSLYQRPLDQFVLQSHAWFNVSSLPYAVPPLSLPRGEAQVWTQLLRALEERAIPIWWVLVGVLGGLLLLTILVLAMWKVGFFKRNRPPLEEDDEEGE
T1 sequence (P05106 27-788): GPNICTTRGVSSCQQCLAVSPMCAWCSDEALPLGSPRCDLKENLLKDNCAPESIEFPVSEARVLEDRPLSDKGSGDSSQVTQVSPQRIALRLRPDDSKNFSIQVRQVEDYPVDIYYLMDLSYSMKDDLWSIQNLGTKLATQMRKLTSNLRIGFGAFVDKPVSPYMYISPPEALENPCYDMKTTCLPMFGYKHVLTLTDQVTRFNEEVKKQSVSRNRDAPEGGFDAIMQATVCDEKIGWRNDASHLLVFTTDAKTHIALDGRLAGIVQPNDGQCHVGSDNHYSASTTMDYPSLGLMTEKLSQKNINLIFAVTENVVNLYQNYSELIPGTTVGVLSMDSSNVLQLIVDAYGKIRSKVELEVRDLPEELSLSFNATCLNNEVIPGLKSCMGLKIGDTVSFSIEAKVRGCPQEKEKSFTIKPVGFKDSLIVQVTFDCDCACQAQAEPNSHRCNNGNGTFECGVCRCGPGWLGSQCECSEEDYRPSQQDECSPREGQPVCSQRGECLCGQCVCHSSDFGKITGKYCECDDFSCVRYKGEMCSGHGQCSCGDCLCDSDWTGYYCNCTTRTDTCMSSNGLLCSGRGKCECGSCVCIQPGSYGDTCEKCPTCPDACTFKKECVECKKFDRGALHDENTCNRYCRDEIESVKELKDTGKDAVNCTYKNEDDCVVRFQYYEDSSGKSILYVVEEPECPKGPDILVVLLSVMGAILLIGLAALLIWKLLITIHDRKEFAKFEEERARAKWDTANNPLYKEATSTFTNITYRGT

Compound	IC50 [1] [nM]	IC50 [2, 6] [nM]	IC50 [3] [nM]	IC50 [5] [nM]	IC50 [2, 12] [nM]	inhibition in vivo at 0.1 mg/kg [4, 7] [%]	inhibition in vivo at 0.1 mg/kg [4, 8] [%]	inhibition in vivo at 0.1 mg/kg [4, 9] [%]	inhibition in vivo at 0.1 mg/kg [4, 10] [%]	inhibition in vivo at 0.1 mg/kg [4, 11] [%]
N=C(N)c1ccc(C(=O)NCCC(=O)NC[C@H](NS(=O)(=O)c2ccccc2)C(=O)O)cc1 [Example 1, (2S)-3-(3-(4-amidinobenzoylamino)propanoylamino)-2-benzenesulfonylaminopropanoic Acid]	200	16	4.6	1000		100	100	100	100	100
COc1ccc(S(=O)(=O)N[C@@H](CNC(=O)CCNC(=O)c2ccc(C(=N)N)cc2)C(=O)O)cc1 [Example 18, (2S)-3-(3-(4-amidinobenzoylamino)propanoylamino)-2-(4-methoxy)benzenesulfonylaminopropanoic Acid]	400		7.3	8900	33	54	100	100	73	66
COc1ccc(S(=O)(=O)N[C@@H](CNC(=O)CCCOc2ccc(C(=N)N)cc2)C(=O)O)cc1 [Example 57, (2S)-3-(4-(4-amidinophenoxy)butanoylamino)-2-(4-methoxy)benzenesulfonylaminopropanoic Acid]	1200		7.1	7500	18					
N=C(N)c1ccc(OCCCC(=O)NC[C@H](NS(=O)(=O)c2ccccc2)C(=O)O)cc1 [Example 58, (2S)-3-(4-(4-amidinophenoxy)butanoylamino)-2-benzenesulfonylaminopropanoicAcid]	610		24	8000	96					
Cc1cc(C)c(S(=O)(=O)N[C@@H](CNC(=O)CCCOc2ccc(C(=N)N)cc2)C(=O)O)c(C)c1 [Example 60, (2S)-3-(4-(4-amidinophenoxy)butanoylamino)-2-(2,4,6-trimethyl)benzenesulfonylaminopropanic Acid]	94		1.5	1100	31					

Further compounds by falling IC50 [1], results first:

IC50 [1] [nM]	IC50 [2, 6] [nM]	IC50 [3] [nM]	IC50 [5] [nM]	IC50 [2, 12] [nM]	Compound	inhibition in vivo at 0.1 mg/kg [4, 7] [%]	inhibition in vivo at 0.1 mg/kg [4, 8] [%]	inhibition in vivo at 0.1 mg/kg [4, 9] [%]	inhibition in vivo at 0.1 mg/kg [4, 10] [%]	inhibition in vivo at 0.1 mg/kg [4, 11] [%]
610		12	3300	34	N=C(N)c1ccc(OCCCC(=O)NC[C@H](NS(=O)(=O)c2ccccc2[N+](=O)[O-])C(=O)O)cc1 [Example 59]					
120	39.6	12	75000		O=C(CCC1CCNCC1)NCCC(=O)NC[C@H](NS(=O)(=O)c1ccccc1)C(=O)O [Example 2, (2S)-2-benzenesulfonylamino-3-(3-(3-(4-piperidyl)propanoylamino)propanoylamino)propanoic Acid]	87	78	67	32	13
99		12	2700	43	COc1ccc(S(=O)(=O)N[C@@H](CNC(=O)Cc2ccc(-c3ccc(C(=N)N)cc3)cc2)C(=O)O)cc1 [Example 68, (2S)-3-(2-(4'-amidino-4-biphenylyl)ethanoylamino)-2-(4-methoxy)benzenesulfonylaminopropanoic Acid]					
33		8.4	630		N=C(N)c1ccc(C(=O)N2CCCC(C(=O)NC[C@H](NS(=O)(=O)c3ccccc3)C(=O)O)C2)cc1 (stereo partly drawn) [Example 95, (2S)-3-((1-(4-amidinobenzoyl)-3-piperidyl)carbonylamino)-2-benzenesulfonylaminopropanoic Acid]	49	49	31	12	18
